The target of this experiment is human plasma kallikrein (Homo sapiens, UniProt P03952). Kind of experiment: Kallikrein inhibition FLINT assay with quenched AMC peptide substrate Z-Gly-Pro-Arg-AMC (end point EP or kinetic KIN reads). Type of experiment: biochemical. The following applies: kinetic reads at 5 min intervals over 30 min; read-out: Kallikrein (KIN) IC50. In outline: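 Enzyme and compound were preincubated 30 min before adding 50 μM AMC substrate in pH 7.5 Tris/NaCl/CaCl2/BSA/CHAPS buffer. AMC release was read at 30 min endpoint or every 5 min.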
Chain of human plasma kallikrein (P03952 391-638 limits assumed): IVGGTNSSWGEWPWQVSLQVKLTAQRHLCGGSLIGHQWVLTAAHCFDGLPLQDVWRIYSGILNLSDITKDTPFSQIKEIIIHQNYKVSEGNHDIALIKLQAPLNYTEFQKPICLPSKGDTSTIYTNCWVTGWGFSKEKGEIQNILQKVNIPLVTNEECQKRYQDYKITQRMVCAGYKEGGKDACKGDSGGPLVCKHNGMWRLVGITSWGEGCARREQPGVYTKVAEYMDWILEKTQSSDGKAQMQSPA
Chain of human plasma kallikrein (P03952 20-390 partner limits assumed): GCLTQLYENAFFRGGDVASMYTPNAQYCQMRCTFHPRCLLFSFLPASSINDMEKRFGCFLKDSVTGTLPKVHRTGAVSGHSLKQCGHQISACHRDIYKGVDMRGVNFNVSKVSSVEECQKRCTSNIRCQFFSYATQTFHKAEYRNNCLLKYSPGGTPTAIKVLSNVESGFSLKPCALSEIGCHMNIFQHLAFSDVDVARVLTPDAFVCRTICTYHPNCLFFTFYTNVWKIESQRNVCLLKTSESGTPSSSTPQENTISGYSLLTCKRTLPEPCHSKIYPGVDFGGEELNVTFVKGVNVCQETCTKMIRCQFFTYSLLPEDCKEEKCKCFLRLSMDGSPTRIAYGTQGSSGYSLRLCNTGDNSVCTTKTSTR

The term IC50 denotes the concentration at which inhibition is half-maximal. For `NC(=O)c1ccc(-c2cnn(C(Cc3ccn(C(F)F)n3)c3ccc(-c4c(-n5cc(C(F)(F)F)nn5)ccc(Cl)c4F)c[n+]3[O-])c2)cc1` (single isomer, unassigned) [Example P907], the half-inhibitory concentration (IC50) was determined as 70.4 nM.

For the compound `NC(=O)c1ccc(-c2cnn(C(Cc3ccn(C(F)F)n3)c3ccc(-c4c(-n5cnnn5)ccc(Cl)c4F)c[n+]3[O-])c2)cc1F` (single isomer, unassigned) [Example P933], the half-maximal inhibitory concentration (IC50) amounted to 0.4 nM.

In the case of `[O-][n+]1cc(-c2c(-n3cnnn3)ccc(Cl)c2F)ccc1C(Cn1cc(-c2ccccn2)cn1)n1cc(-c2ccccn2)cn1` (single isomer, unassigned) [Example P516], the concentration for half-maximal inhibition (IC50) was 139 nM.

With `O=C(O)c1ccc(-c2cnn(C(c3cn(C4CCNCC4)nn3)c3ccc(-c4c(-n5cnnn5)ccc(Cl)c4F)c[n+]3[O-])c2)cc1` (centres unmarked) [Example P52], the IC50 is 7710 nM.

In the case of `O=C(c1ccn(CC(c2ccc(-c3c(-n4cnnn4)ccc(Cl)c3F)c[n+]2[O-])n2cc(-c3cc[n+]([O-])cc3)cn2)n1)N1CCCCC1` (centres unmarked) [Example P447], the 50% inhibitory concentration (IC50) stood at 4.3 nM.

Turning to `NC(=O)c1ccc(-c2cnn(C(CC3CC3)c3ccc(-c4c(-n5cc(C(F)(F)F)nn5)ccc(Cl)c4F)c[n+]3[O-])c2)s1` (centres unmarked) [Example P904], the IC50 amounted to 123 nM.

Consider `[O-][n+]1cc(-c2c(-n3cnnn3)ccc(Cl)c2F)ccc1C(CCOC(F)F)n1cc(-c2cn(C(F)F)nn2)cn1` (single isomer, unassigned) [Example P659], for which the half-inhibitory concentration (IC50) is 170 nM.

`[O-][n+]1cc(-c2c(-n3cc(Cl)nn3)ccc(Cl)c2F)ccc1[C@@H](CCOC(F)F)n1cc(-c2ncnn2C(F)F)cn1` [Example P683]: the IC50 was determined as 29.5 nM.

For `NC(=O)c1scc(-c2cnn(C(CC3CC3)c3ccc(-c4c(-n5cnnn5)ccc(Cl)c4F)c[n+]3[O-])c2)c1F` (single isomer, unassigned) [Example P954], the IC50 came out at 788 nM.

For the compound `Cc1ncn(-c2cnn(C(CCOC(F)F)c3ccc(-c4c(-n5cc(OC(F)F)nn5)ccc(Cl)c4F)c[n+]3[O-])c2)n1` (single isomer, unassigned) [Example P825], the half-inhibitory concentration (IC50) was determined as 588 nM.

Consider `Cn1ncc(F)c1-c1cnn(C(CC2CC2)c2ccc(-c3c(-n4cnnn4)ccc(Cl)c3F)c[n+]2[O-])c1` (centres unmarked) [Example P478], for which the half-inhibitory concentration (IC50) is 236 nM.

Consider `Cn1nccc1-c1cnn(C(Cn2cc(F)cn2)c2ccc(-c3c(-n4cnnn4)ccc(Cl)c3F)c[n+]2[O-])c1` (centres unmarked) [Example P503], for which the IC50 is 13.4 nM.

Consider `CN(CC(c1ccc(-c2c(-n3cnnn3)ccc(Cl)c2F)c[n+]1[O-])n1cc(-c2cc[n+]([O-])cc2)cn1)C(=O)Cc1ccccc1` (centres unmarked) [Example P345], for which the IC50 is 152 nM.

Consider `CCC(c1ccc(-c2c(-n3cc(C(F)(F)F)nn3)ccc(Cl)c2F)c[n+]1[O-])n1cc(-c2ccc(C(N)=O)c(F)c2)cn1` (single isomer, unassigned) [Example P883], for which the IC50 was 103 nM.

Regarding `Cn1cc(CC(c2ccc(-c3c(-n4cnnn4)ccc(Cl)c3F)c[n+]2[O-])n2cc(-c3ccnc(C(F)(F)F)c3)cn2)nn1` (centres unmarked) [Example P695], the half-maximal inhibitory concentration (IC50) was determined as 43.7 nM.

Turning to `CN(CC(c1ccc(-c2c(-n3cnnn3)ccc(Cl)c2F)c[n+]1[O-])n1cc(-c2ccnc(C(F)(F)F)c2)cn1)C(=O)C1CC1` (single isomer, unassigned) [Example P428], the half-inhibitory concentration (IC50) was 64.1 nM.

As to `Nc1cnc(-c2cnn(C(CCOC(F)F)c3ccc(-c4c(-n5cc(C(F)(F)F)nn5)ccc(Cl)c4F)c[n+]3[O-])c2)c(F)n1` (single isomer, unassigned) [Example P833], the IC50 was 62.7 nM.

For the compound `[2H]C([2H])(C[C@H](c1ccc(-c2c(-n3cnnn3)ccc(Cl)c2F)c[n+]1[O-])n1cc(-c2cn(C)nc2Cl)cn1)OC(F)F` [Example P850], the half-maximal inhibitory concentration (IC50) was 1.4 nM.

Turning to `O=C(NC1CC1)c1ccc(-c2cnn(C(CC3CCCCO3)c3ccc(-c4c(-n5cnnn5)ccc(Cl)c4F)c[n+]3[O-])c2)cc1` (single isomer, unassigned) [Example P80], the IC50 came to 53.3 nM.

As for `O=C(Cc1cnn(CC(c2ccc(-c3c(-n4cnnn4)ccc(Cl)c3F)c[n+]2[O-])n2cc(-c3ccnc(C(F)(F)F)c3)cn2)c1)N1CCCCC1` (centres unmarked) [Example P473], the IC50 came out at 104 nM.

With `Cc1nccc(-c2cnn(C(CC3CC3)c3ccc(-c4c(-n5cnnn5)ccc(Cl)c4F)c[n+]3[O-])c2)n1` (centres unmarked) [Example P368], the concentration for half-maximal inhibition (IC50) came to 621 nM.

On to `O=C1CCCN1CC(c1ccc(-c2c(-n3cnnn3)ccc(Cl)c2F)c[n+]1[O-])n1cc(-c2cc[n+]([O-])c(C(F)F)c2)cn1` (centres unmarked) [Example P365], for which the half-inhibitory concentration (IC50) was 30.1 nM.

For the compound `COC(=O)Nc1ccc(-c2cnn(C(CC3CCCC3)c3ccc(-c4c(-n5cnnn5)ccc(Cl)c4F)c[n+]3[O-])c2)cc1` (centres unmarked) [Example P110], the IC50 stood at 123 nM.

Turning to `COCCC(c1ccc(-c2c(-n3cc(Cl)nn3)ccc(Cl)c2F)c[n+]1[O-])n1cc(-c2c(Cl)nnn2C)cn1` (centres unmarked) [Example P639], the IC50 came out at 316 nM.

Consider `CC(=O)Nc1cnc(C(F)(F)F)cc1-c1cnn(C(CC2CC2)c2ccc(-c3c(-n4cnnn4)ccc(Cl)c3F)c[n+]2[O-])c1` (single isomer, unassigned) [Example P842], for which the concentration for half-maximal inhibition (IC50) is 346 nM.

`CN(CC(c1ccc(-c2c(-n3cnnn3)ccc(Cl)c2F)c[n+]1[O-])n1cc(-c2ccnc(C(F)(F)F)c2)cn1)C(=O)c1ccccc1` (single isomer, unassigned) [Example P423]: the concentration for half-maximal inhibition (IC50) worked out at 43.9 nM.

As for `NC(=O)c1ccc(-c2cnn(C(CCOC(F)F)c3ccc(-c4c(-n5cnnn5)ccc(Cl)c4F)c[n+]3[O-])c2)cc1F` (single isomer, unassigned) [Example P928], the 50% inhibitory concentration (IC50) turned out to be 0.9 nM.

For the compound `CC(=O)N(C)CC(c1ccc(-c2c(-n3cnnn3)ccc(Cl)c2F)c[n+]1[O-])n1cc(-c2ccncc2)cn1` (centres unmarked) [Example P302], the IC50 worked out at 54.6 nM.

For the compound `[O-][n+]1cc(-c2c(-n3cnnn3)ccc(Cl)c2F)ccc1C(CCOC(F)F)n1cc(-c2ccnc(C(F)(F)F)c2)cn1` (centres unmarked) [Example P462], the IC50 is 14.3 nM.

Take `[O-][n+]1cc(-c2c(-n3cnnn3)ccc(Cl)c2F)ccc1C(CC1CC1)n1cc(-c2ccnc(F)c2)cn1` (single isomer, unassigned) [Example P264]: the IC50 was 46.3 nM.

Regarding `COC(=O)Nc1ccc(-c2cnn(C(Cc3ccccc3OC)c3ccc(-c4c(-n5cnnn5)ccc(Cl)c4F)c[n+]3[O-])c2)cc1` (centres unmarked) [Example P164], the IC50 was found to be 28.5 nM.

On to `[O-][n+]1cc(-c2c(-n3cnnn3)ccc(Cl)c2F)ccc1[C@@H](Cc1ccc(F)cc1)n1cc(-c2ccnn2C(F)F)cn1` [Example P568], for which the IC50 was determined as 3.1 nM.

As for `[O-][n+]1cc(-c2c(-n3cnnn3)ccc(Cl)c2F)ccc1C(Cn1cc(F)cn1)n1cc(-c2cc(C(F)(F)F)ncn2)cn1` (centres unmarked) [Example P468], the concentration for half-maximal inhibition (IC50) came out at 159 nM.

Regarding `[O-][n+]1cc(-c2c(-n3cnnn3)ccc(Cl)c2F)ccc1C(CCOC(F)F)n1cc(-c2ccncc2F)cn1` (centres unmarked) [Example P385], the IC50 came to 3.5 nM.

With `Cn1ccc(C[C@H](c2ccc(-c3cc(Cl)ccc3OCC(F)(F)F)c[n+]2[O-])n2cc(-c3ccc(C(=O)O)cc3)cn2)n1` [Example Q58], the half-inhibitory concentration (IC50) is 517 nM.

For `[O-][n+]1cc(-c2c(-n3cnnn3)ccc(Cl)c2F)ccc1[C@@H](Cc1cnn(C(F)F)n1)n1cc(-c2ccnc(C(F)(F)F)c2)cn1` [Example P742], the IC50 worked out at 19.1 nM.

For the compound `Nc1ccc(-c2cnn(C(Cn3cccn3)c3ccc(-c4c(-n5cnnn5)ccc(Cl)c4F)c[n+]3[O-])c2)c(F)n1` (centres unmarked) [Example P256], the IC50 stood at 3 nM.

Consider `COCCOC(=O)Nc1ccc(-c2cnn(C(CC3CC3)c3ccc(-c4c(-n5cnnn5)ccc(Cl)c4F)c[n+]3[O-])c2)cc1` (centres unmarked) [Example P141], for which the IC50 came out at 72.8 nM.

As for `N#Cc1cn(-c2ccc(Cl)c(F)c2-c2ccc([C@@H](CCOC(F)F)n3cc(-c4ncnn4C(F)F)cn3)[n+]([O-])c2)nn1` [Example P790], the IC50 was 35.8 nM.

Turning to `CCOc1cc(C(CC2CC2)n2cc(-c3ncnn3C)cn2)[n+]([O-])cc1-c1cc(Cl)ccc1-n1cc(C(F)(F)F)nn1` (single isomer, unassigned) [Example P945], the IC50 is 324 nM.

For `[O-][n+]1cc(-c2cc(Cl)ccc2-n2cnnn2)ccc1C(Cn1cc(C(F)(F)F)cn1)n1cc(-c2ccnc(F)c2)cn1` (centres unmarked) [Example P321], the 50% inhibitory concentration (IC50) was 94.9 nM.

As for `[O-][n+]1ccc(-c2cnn(C(Cn3cc(F)cn3)c3ccc(-c4c(-n5cnnn5)ccc(Cl)c4F)c[n+]3[O-])c2)cc1C(F)F` (single isomer, unassigned) [Example P406], the half-inhibitory concentration (IC50) came to 27.6 nM.

Take `O=C1CCCN1CC(c1ccc(-c2c(-n3cnnn3)ccc(Cl)c2F)c[n+]1[O-])n1cc(-c2ccnc(F)c2)cn1` (single isomer, unassigned) [Example P382]: the IC50 came out at 7.3 nM.

As to `NC(=O)c1ccc(-c2cnn(C(Cc3ccn(C(F)F)n3)c3ccc(-c4c(C(F)F)ccc(Cl)c4F)c[n+]3[O-])c2)cc1` (single isomer, unassigned) [Example Q69], the half-maximal inhibitory concentration (IC50) came out at 0.8 nM.

Regarding `[O-][n+]1cc(-c2c(-n3cnnn3)ccc(Cl)c2F)ccc1C(CCOC(F)F)n1cc(-c2ccnc(C(F)(F)F)n2)cn1` (single isomer, unassigned) [Example P401], the 50% inhibitory concentration (IC50) was found to be 18.6 nM.

For the compound `COC(=O)Nc1ccc(-c2cnn(C(Cc3ccccc3)c3ccc(-c4c(-n5cnnn5)ccc(Cl)c4F)c[n+]3[O-])c2)cc1` (centres unmarked) [Example P71], the 50% inhibitory concentration (IC50) turned out to be 7.5 nM.

For `COC(=O)Nc1ccc(-c2cnn(C(CC3CCCO3)c3ccc(-c4c(-n5cnnn5)ccc(Cl)c4F)c[n+]3[O-])c2)cc1` (single isomer, unassigned) [Example P202], the IC50 amounted to 119 nM.

In the case of `[O-][n+]1cc(-c2c(-n3cnnn3)ccc(Cl)c2F)ccc1C(Cn1cccn1)n1cc(-c2ccncc2)cn1` (centres unmarked) [Example P269], the IC50 came to 6.1 nM.

For the compound `CNc1ncc(-c2cnn([C@H](CCOC(F)F)c3ccc(-c4c(-n5cnnn5)ccc(Cl)c4F)c[n+]3[O-])c2)cn1` [Example P552], the IC50 amounted to 56 nM.

With `NC(=O)COc1ccc(CC(c2ccc(-c3cc(Cl)ccc3-n3cnnn3)c[n+]2[O-])n2cc(-c3ccc(C(=O)O)cc3)cn2)cc1` (centres unmarked) [Example P138], the concentration for half-maximal inhibition (IC50) turned out to be 4.1 nM.
